Data taken from patent publication US11337971B2, “Dopamine D3 receptor selective antagonists/partial agonists and uses thereof” (THE UNITED STATES OF AMERICA, AS REPRESENTED BY THE …, priority 2018, dated 2022).
Where two headings read alike, the source gives them in different places.

Columns and labels:
[1] = biological target: human D3R (Homo sapiens (Human), UniProt P35462); test: Radioligand competition binding, [3H]N-methylspiperone, HEK293 membranes expressing human D3R; settings: for Ki: read-out: D3R Ki ± SEM; for D2/D3: ratio of Ki values
Protocol: (§1) Binding at dopamine D2-like receptors was determined using previously described methods. […] Upon reaching 80-90% confluence, cells were harvested using pre-mixed Earle's Balanced Salt Solution (EBSS) with […] EDTA (Life Technologies) and centrifuged at 3000 rpm for 10 min at 21° C. The supernatant was removed and the pellet was resuspended in 10 mL hypotonic lysis buffer (5 mM MgCl2.6H2O, 5 mM Tris, pH 7.4 at 4° C.) and centrifuged at 20,000 rpm for 30 min at 4° C. The pellet was then resuspended in fresh EBSS buffer made from 8.7 g/L Earle's Balanced Salts without phenol red (US Biological, Salem, Mass.), 2.2 g/L sodium bicarbonate, pH to 7.4. A Bradford protein assay (Bio-Rad, Hercules, Calif.) was used to determine the protein concentration and membranes were diluted to 500 μg/mL and stored in a −80° C. freezer for later use.
(§2) Radioligand competition binding experiments were conducted using thawed membranes. Test compounds were freshly dissolved in 30% DMSO and 70% H2O to a stock concentration of 100 μM. To assist the solubilization of free-base compounds, 10 μl of glacial acetic acid was added along with the DMSO. Each test compound was then diluted into 13 half-log serial dilutions using 30% DMSO vehicle; final test concentrations ranged from 10 μM to 10 pM. Previously frozen membranes were diluted in fresh EBSS to a 100 μg/mL (for hD2R or hD3R) or 200 μg/mL (hD4R) stock for binding. […] buffer with 0.2 mM sodium metabisulfite, 50 μl of diluted test compound, 100 μl of membranes (10 μg total protein for hD2R or hD3R, 20 μg total protein for hD4R), and 50 μl of [^3H]N-methylspiperone (0.4 nM final concentration; Perkin Elmer). Nonspecific binding was determined using 10 μM butaclamol (Sigma-Aldrich, St. Louis, Mo.) and total binding was determined with 30% DMSO vehicle. All compound dilutions were tested in triplicate and the reaction incubated for one hour at room temperature. The reaction was terminated by filtration through Whatman GF/B filters, presoaked for one hour in 0.5% polyethylenimine, using a Brandel R48 filtering manifold (Brandel Instruments, Gaithersburg, Md.). The filters were washed 3 times with 3 mL of ice cold EBSS buffer and transferred to scintillation vials. […] IC50 values for each compound were determined from dose-response curves and Ki values were calculated using the Cheng-Prusoff equation; these analyses were performed using GraphPad Prism version 5.00 for Windows (GraphPad Software, San Diego, Calif.). Reported Ki values were determined from least three independent experiments.
(§3) The binding affinities of the compounds were evaluated by performing competition binding studies with [^3H]N-methylspiperone using membranes prepared from HEK293 cells expressing either the human D2R or D3R.

[2] = biological target: human dopamine D3R (Homo sapiens (Human), UniProt P35462); test: D3R mitogenesis assay: stimulation or inhibition of quinpirole-stimulated mitogenesis in CHO cells; format: cell-based; settings: inhibition of quinpirole-stimulated mitogenesis
[3] = biological target: 5-HT1A (Homo sapiens (Human), UniProt P08908); test: 5-HT1A [3H]-8-OH-DPAT binding; settings: read-out: 5-HT1A [3H]-8-OH-DPAT Ki ± SEM
[4] = biological target: human D4R (Homo sapiens (Human), UniProt P21917); test: Radioligand competition binding, [3H]N-methylspiperone, HEK293 membranes expressing human D4R; settings: Table 1A; for Ki: [3H]N-methylspiperone, read-out: D4R Ki ± SEM; for D4/D2 / D4/D3: ratio of Ki values
Protocol: Binding at dopamine D2-like receptors was determined using previously described methods. (Chen et al. “Tranylcypromine substituted cis-hydroxycyclobutylnaphthamides as potent and selective dopamine D(3) receptor antagonists.” J. Med. Chem. 2014, 57, 4962-4968) Membranes were prepared from HEK293 cells expressing human D2R, D3R or D4R, grown in a 50:50 mix of DMEM and Ham's F12 culture media, supplemented with 20 mM HEPES, 2 mM L-glutamine, 0.1 mM non-essential amino acids, 1× antibiotic/antimycotic, 10% heat-inactivated fetal bovine serum, and 200 μg/mL hygromycin (Life Technologies, Grand Island, N.Y.) and kept in an incubator at 37° C. and 5% CO2. Upon reaching 80-90% confluence, cells were harvested using pre-mixed Earle's Balanced Salt Solution (EBSS) with […] EDTA (Life Technologies) and centrifuged at 3000 rpm for 10 min at 21° C. The supernatant was removed and the pellet was resuspended in 10 mL hypotonic lysis buffer (5 mM MgCl2.6H2O, 5 mM Tris, pH 7.4 at 4° C.) and centrifuged at 20,000 rpm for 30 min at 4° C. The pellet was then resuspended in fresh EBSS buffer made from 8.7 g/L Earle's Balanced Salts without phenol red (US Biological, Salem, Mass.), 2.2 g/L sodium bicarbonate, pH to 7.4. A Bradford protein assay (Bio-Rad, Hercules, Calif.) was used to determine the protein concentration and membranes were diluted to 500 μg/mL and stored in a −80° C. freezer for later use.
Radioligand competition binding experiments were conducted using thawed membranes. Test compounds were freshly dissolved in 30% DMSO and 70% H2O to a stock concentration of 100 μM. To assist the solubilization of free-base compounds, 10 μl of glacial acetic acid was added along with the DMSO. Each test compound was then diluted into 13 half-log serial dilutions using 30% DMSO vehicle; final test concentrations ranged from 10 μM to 10 pM. Previously frozen membranes were diluted in fresh EBSS to a 100 μg/mL (for hD2R or hD3R) or 200 μg/mL (hD4R) stock for binding. Radioligand competition experiments were conducted in glass tubes containing 300 μl fresh EBSS buffer with 0.2 mM sodium metabisulfite, 50 μl of diluted test compound, 100 μl of membranes (10 μg total protein for hD2R or hD3R, 20 μg total protein for hD4R), and 50 μl of [^3H]N-methylspiperone (0.4 nM final concentration; Perkin Elmer). Nonspecific binding was determined using 10 μM butaclamol (Sigma-Aldrich, St. Louis, Mo.) and total binding was determined with 30% DMSO vehicle. All compound dilutions were tested in triplicate and the reaction incubated for one hour at room temperature. The reaction was terminated by filtration through Whatman GF/B filters, presoaked for one hour in 0.5% polyethylenimine, using a Brandel R48 filtering manifold (Brandel Instruments, Gaithersburg, Md.). The filters were washed 3 times with 3 mL of ice cold EBSS buffer and transferred to scintillation vials. 3 mL CytoScint liquid scintillation cocktail (MP Biomedicals, Solon, Ohio) was added and vials were counted using a Perkin Elmer Tri-Carb 2910 TR liquid scintillation counter (Waltham, Mass.). IC50 values for each compound were determined from dose-response curves and Ki values were calculated using the Cheng-Prusoff equation; these analyses were performed using GraphPad Prism version 5.00 for Windows (GraphPad Software, San Diego, Calif.). Reported Ki values were determined from least three independent experiments.

[5] = biological target: 5-HT2A (Homo sapiens (Human), UniProt P28223); test: 5-HT2A [125I]DOI binding; settings: read-out: 5-HT2A [125I]DOI Ki ± SEM
[6] = biological target: human D2R (Homo sapiens (Human), UniProt P14416); test: Radioligand competition binding, [3H]N-methylspiperone, HEK293 membranes expressing human D2R; settings: read-out: D2R Ki ± SEM
Protocol: as §1, §2, §3

[7] = biological target: 5-HT2C (Homo sapiens (Human), UniProt P28335); test: 5-HT2C [125I]DOI binding; settings: read-out: 5-HT2C [125I]DOI Ki ± SEM
[8] = Phase I metabolic stability in rat liver microsomes; format: in vitro ADME; settings: phase I metabolic stability in rat liver microsomes
From the text: Rat Liver Microsome Metabolic Stability: Test compounds including 3-F analogues (C4a, C4b, C5a, C5b) and 29, 19 as well as the R-, S-enantiomers of C4a, C5a, 29 and 19 were screened for phase I metabolic stability in rat liver microsomes.

[9] = Table 1A, HEK 293 cells transfected with hD3R, [3H]N-methylspiperone
[10] = Table 2a, read-out: Antagonist IC50 ± SEM
[11] = Table 1A, HEK 293 cells transfected with hD2LR, [3H]N-methylspiperone
[12] = Table 1B, [3H]-N-methylspiperone competition, D2LR, 96-well plates
[13] = Table 1B, [3H]-N-methylspiperone competition, 96-well plates
[14] = Table 2b, read-out: Antagonist IC50 ± S.E.M.

human dopamine D3R, sequence (P35462 whole entry): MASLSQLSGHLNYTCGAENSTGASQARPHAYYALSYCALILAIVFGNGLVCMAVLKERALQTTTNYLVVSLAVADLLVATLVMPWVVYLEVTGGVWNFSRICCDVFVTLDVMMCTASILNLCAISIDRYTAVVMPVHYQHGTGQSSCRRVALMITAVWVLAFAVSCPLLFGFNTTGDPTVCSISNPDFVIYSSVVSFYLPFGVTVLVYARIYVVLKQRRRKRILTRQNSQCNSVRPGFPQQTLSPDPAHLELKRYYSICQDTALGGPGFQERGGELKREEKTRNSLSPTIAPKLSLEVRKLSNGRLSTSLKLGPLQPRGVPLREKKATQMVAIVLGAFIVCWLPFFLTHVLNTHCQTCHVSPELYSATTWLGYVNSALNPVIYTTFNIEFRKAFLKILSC
human D3R, sequence (P35462 whole entry): as above
human D4R, sequence (P21917 whole entry): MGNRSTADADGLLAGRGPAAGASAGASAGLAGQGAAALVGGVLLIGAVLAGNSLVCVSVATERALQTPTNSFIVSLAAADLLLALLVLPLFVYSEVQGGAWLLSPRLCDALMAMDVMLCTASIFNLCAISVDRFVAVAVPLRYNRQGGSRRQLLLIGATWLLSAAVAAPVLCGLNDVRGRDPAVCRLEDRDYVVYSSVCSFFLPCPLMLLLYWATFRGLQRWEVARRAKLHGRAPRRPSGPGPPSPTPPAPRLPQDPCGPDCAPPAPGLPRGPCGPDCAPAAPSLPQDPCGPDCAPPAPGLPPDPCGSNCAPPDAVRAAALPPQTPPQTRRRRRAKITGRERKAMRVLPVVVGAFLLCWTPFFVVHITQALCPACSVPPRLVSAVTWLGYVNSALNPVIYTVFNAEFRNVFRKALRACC
5-HT1A, sequence (P08908 whole entry, species assumed): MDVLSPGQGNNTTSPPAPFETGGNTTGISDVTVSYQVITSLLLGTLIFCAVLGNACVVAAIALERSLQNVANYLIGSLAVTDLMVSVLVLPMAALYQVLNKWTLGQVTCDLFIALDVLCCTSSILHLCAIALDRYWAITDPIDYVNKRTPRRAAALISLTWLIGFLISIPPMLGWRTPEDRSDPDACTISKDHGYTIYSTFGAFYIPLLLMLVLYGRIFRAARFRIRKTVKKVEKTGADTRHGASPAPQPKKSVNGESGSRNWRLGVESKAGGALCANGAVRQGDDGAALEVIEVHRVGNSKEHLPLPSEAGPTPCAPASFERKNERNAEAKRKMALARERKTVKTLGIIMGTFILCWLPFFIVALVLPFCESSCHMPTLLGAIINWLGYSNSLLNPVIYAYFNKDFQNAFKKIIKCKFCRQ
5-HT2C, sequence (P28335 33-458, species assumed): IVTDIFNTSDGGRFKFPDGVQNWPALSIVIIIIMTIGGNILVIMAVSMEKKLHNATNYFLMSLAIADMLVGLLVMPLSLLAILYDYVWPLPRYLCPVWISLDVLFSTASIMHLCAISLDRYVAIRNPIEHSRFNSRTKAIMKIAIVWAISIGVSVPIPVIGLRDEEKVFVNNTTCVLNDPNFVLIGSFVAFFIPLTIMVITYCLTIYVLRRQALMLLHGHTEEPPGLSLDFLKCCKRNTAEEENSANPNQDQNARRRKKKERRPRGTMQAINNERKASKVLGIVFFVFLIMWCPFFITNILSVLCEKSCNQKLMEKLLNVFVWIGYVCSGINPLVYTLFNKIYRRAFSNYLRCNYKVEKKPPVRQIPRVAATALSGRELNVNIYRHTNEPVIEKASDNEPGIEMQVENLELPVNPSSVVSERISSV
5-HT2A, sequence (P28223 whole entry, species assumed): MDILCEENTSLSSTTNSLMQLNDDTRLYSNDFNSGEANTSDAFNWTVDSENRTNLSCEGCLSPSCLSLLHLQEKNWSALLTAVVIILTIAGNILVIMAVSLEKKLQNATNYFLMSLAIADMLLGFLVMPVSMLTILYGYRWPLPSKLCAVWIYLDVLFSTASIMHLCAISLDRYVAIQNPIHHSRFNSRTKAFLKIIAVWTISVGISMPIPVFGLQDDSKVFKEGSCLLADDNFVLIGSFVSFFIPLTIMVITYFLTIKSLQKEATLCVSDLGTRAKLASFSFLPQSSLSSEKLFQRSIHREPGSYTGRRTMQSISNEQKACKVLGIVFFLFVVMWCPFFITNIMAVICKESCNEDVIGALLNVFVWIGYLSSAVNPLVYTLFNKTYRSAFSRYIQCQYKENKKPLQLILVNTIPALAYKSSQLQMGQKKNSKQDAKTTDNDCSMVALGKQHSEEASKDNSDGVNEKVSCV
human D2R, sequence (P14416 whole entry): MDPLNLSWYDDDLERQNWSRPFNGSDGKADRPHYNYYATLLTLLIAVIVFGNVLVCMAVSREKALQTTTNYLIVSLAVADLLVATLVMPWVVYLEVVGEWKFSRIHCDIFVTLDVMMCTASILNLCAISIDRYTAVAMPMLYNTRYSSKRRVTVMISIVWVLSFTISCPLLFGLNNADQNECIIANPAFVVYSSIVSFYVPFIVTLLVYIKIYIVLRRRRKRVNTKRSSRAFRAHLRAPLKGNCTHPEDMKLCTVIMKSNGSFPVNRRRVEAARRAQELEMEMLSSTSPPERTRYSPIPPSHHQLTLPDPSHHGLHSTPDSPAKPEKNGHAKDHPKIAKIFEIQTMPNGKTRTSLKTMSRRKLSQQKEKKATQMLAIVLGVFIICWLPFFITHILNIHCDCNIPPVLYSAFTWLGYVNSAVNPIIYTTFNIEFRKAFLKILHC

| SMILES | Ki [1, 9] [nM] | D2/D3 ([1]; Table 1A) | IC50 [2, 10] [nM] | Ki ([3]; Table 3a) [nM] | Ki [4] [nM] | D4/D2 [4] | D4/D3 [4] | Ki ([5]; Table 3a) [nM] | Ki [6, 11] [nM] | Ki ([7]; Table 3a) [nM] | Ki [6, 12] [nM] | Ki ([6]; Table 1C) [nM] | Ki [1, 13] [nM] | D2/D3 ([1]; Table 1B) | D2/D3 ([1]; Table 1C) | Ki ([1]; Table 1C) [nM] | IC50 [2, 14] [nM] | Ki ([3]; Table 3b) [nM] | Ki ([5]; Table 3b) [nM] | % intact/parent remaining [8] [%] | other results |
| --- | --- | --- | --- | --- | --- | --- | --- | --- | --- | --- | --- | --- | --- | --- | --- | --- | --- | --- | --- | --- | --- |
| CCc1cc(Cl)c(OC)c(N2CCN(CC(O)CCNC(=O)c3cc4ccccc4o3)CC2)c1 (stereo not shown) [Compound 31, N-(4-(4-(3-Chloro-5-ethyl-2-methoxyphenyl)piperazin-1-yl)-3-hydroxybutyl)benzofuran-2-carboxamide] | 36.1 ± 5 | 45 | 950 ± 350 | 2410 ± 830 | 5280 ± 319 | 3.3 | 146 | 42.9 ± 6.8 | 1620 ± 339 | 268 ± 34 | – | – | – | – | – | – | – | – | – | – | – |
| CCc1cccc(N2CCN(CC(O)CCNC(=O)c3cc4ccccc4[nH]3)CC2)c1Cl (racemic) [Compound 19, N-(4-(4-(2-chloro-3-ethylphenyl)piperazin-1-yl)-3-hydroxybutyl)-1H-indole-2-carboxamide] | – | – | – | 880 ± 160 | 5520 ± 1660 | – | – | 28.1 ± 9.7 | 151 ± 25.4 | 113 ± 33 | 119 ± 11.1 | 132 ± 12.7 | – | – | – | – | – | – | – | – | – |
| CCc1cc(Cl)c(OC)c(N2CCN(CCCCNC(=O)c3cc4ccccc4[nH]3)CC2)c1 [Compound 28, N-(4-(4-(3-Chloro-5-ethyl-2-methoxyphenyl)piperazin-1-yl)butyl)-1H-indole-2-carboxamide] | 0.341 ± 0.0312 | 82 | 330 ± 100 | 2330 ± 700 | 1040 ± 279 | 38 | 3065 | 60.1 ± 9.5 | 27.8 ± 6.71 | 144 ± 37 | – | – | – | – | – | – | – | – | – | – | – |
| CCc1cc(Cl)c(OC)c(N2CCN(CC(F)CCNC(=O)c3cc4ccccc4o3)CC2)c1 (racemic) [Compound C4b, N-(4-(4-(3-chloro-5-ethyl-2-methoxyphenyl)piperazin-1-yl)-3-fluorobutyl)benzofuran-2-carboxamide] | – | – | – | – | – | – | – | – | – | – | 9740 ± 2100 | 10800 ± 2290 | 89.9 ± 12.3 | 108 | 108 | 99.9 ± 13.4 | 490 ± 150 | 2660 ± 570 | 2990 ± 530 | 12 | Ki ([7]; Table 3b): 1780 ± 390 nM |
| CCc1cc(Cl)c(OC)c(N2CCN(CC(F)CCNC(=O)c3cc4ccccc4[nH]3)CC2)c1 (racemic) [Compound C4a, N-(4-(4-(3-chloro-5-ethyl-2-methoxyphenyl)piperazin-1-yl)-3-fluorobutyl)-1H-indole-2-carboxamide] | – | – | – | – | – | – | – | – | – | – | 27100 ± 11600 | 20800 ± 7060 | 28 ± 5.53 | 968 | 746 | 27.9 ± 5.64 | 510 ± 130 | 9500 ± 3000 | 6600 ± 1400 | ~75 | – |
| CCc1cccc(N2CCN(CC(F)CCNC(=O)c3cc4ccccc4[nH]3)CC2)c1Cl (racemic) [Compound C5a, N-(4-(4-(2-chloro-3-ethylphenyl)piperazin-1-yl)-3-fluorobutyl)-1H-indole-2-carboxamide] | – | – | – | – | – | – | – | – | – | – | 124 ± 15.8 | 247 ± 57.4 | 0.482 ± 0.15 | 257 | 327 | 0.756 ± 0.185 | 95 ± 31 | 910 ± 120 | 620 ± 120 | 38 | D3R selectivity over D2R (D2R/D3R) [1]: 327 fold; Ki ([7]; Table 3b): 580 ± 160 nM |
| CCc1cc(Cl)c(OC)c(N2CCN(CCCCNC(=O)c3cc4ccccc4o3)CC2)c1 [Compound 30, N-(4-(4-(3-Chloro-5-ethyl-2-methoxyphenyl)piperazin-1-yl)butyl)benzofuran-2-carboxamide] | 3.19 ± 0.268 | 43 | 420 ± 130 | 560 ± 170 | 714 ± 293 | 5.2 | 224 | 25 ± 6.6 | 137 ± 9 | 55 ± 17 | – | – | – | – | – | – | – | – | – | – | – |
